Experimental data published in paper PMC10046095 (2023).
Values belong to the compound of their own block, whether it stands above or below them.

Key:
[1] = test system: a-TCmu (biotinylated, on DynaSA) (RNA, aptamer) GGGCCUAAAACAUACCAGAUCGCCACCCGCGCUUUAAUCUGGAGAGGUGAAGAAUACGACCACCUAGGCUC; assay: bead capture, HPLC; settings: room temperature, 1 h; eluted with 2 M NaCl and 80 °C
[2] = test system: a-TC76 (DNA, aptamer) CGTACGGAATTCGCTAGCCCCCCGGCAGGCCACGGCTTGGGTTGGTCCCACTGCGCGTGGATCCGAGCTCCACGTG; assay: equilibrium filtration, HPLC; settings: 100 mM NaCl, 5 mM KCl, 2 mM MgCl2, 1 mM CaCl2; 20 mM Tris/HCl pH 7.6 (binding buffer listed for TC)
[3] = test system: a-TCmu (RNA, aptamer) GGGCCUAAAACAUACCAGAUCGCCACCCGCGCUUUAAUCUGGAGAGGUGAAGAAUACGACCACCUAGGCUC; assay: fluorescence titration (intrinsic tetracycline fluorescence); settings: 100 mM NaCl, 10 mM MgCl2; 20 mM potassium phosphate pH 7.5, 25 °C; fluorescence yield up about 12 times
[4] = test system: a-TC40 (DNA, aptamer) GTTTGTGTATTACAGTTATGTTACCCTCATTTTTCTGAAC; assay: equilibrium filtration, HPLC; settings: 100 mM NaCl, 5 mM KCl, 2 mM MgCl2, 1 mM CaCl2; 20 mM Tris/HCl pH 7.6 (binding buffer listed for TC); filter leakage 0.53
[5] = test system: a-TC40 (amino, on DynaEpoxy) (DNA, aptamer) GTTTGTGTATTACAGTTATGTTACCCTCATTTTTCTGAAC; assay: bead capture, HPLC; settings: room temperature, 1 h; capture significantly higher than nonsense aptamer
[6] = test system: a-TCmu (RNA, aptamer) GGGCCUAAAACAUACCAGAUCGCCACCCGCGCUUUAAUCUGGAGAGGUGAAGAAUACGACCACCUAGGCUC; assay: equilibrium filtration, HPLC; settings: Na+ 100 mM; Mg2+ 10 mM; K+ (20 mM potassium phosphate buffer); 20 mM potassium phosphate pH 7.5 (presumed)
[7] = test system: a-TC8 (amino, on DynaEpoxy) (DNA, aptamer) CGGTGGTG; assay: bead capture, HPLC; settings: room temperature, 1 h; capture significantly higher than nonsense aptamer
[8] = test system: a-SMZ (DNA, aptamer) TTAGCTTATGCGTTGGCCGGGATAAGGATCCAGCCGTTGTAGATTTGCGTTCTAACTCTC; assay: equilibrium filtration, HPLC; settings: 100 mM NaCl, 5 mM KCl, 2 mM MgCl2, 1 mM CaCl2; 20 mM Tris/HCl pH 7.6 (binding buffer listed for SMZ); highest aptamer 2.5 µM
[9] = test system: a-SMZ-b (on DynaSA) (DNA, aptamer) TTAGCTTATGCGTTGGCCGGGATAAGGATCCAGCCGTTGTAGATTTGCGTTCTAACTCTC; assay: bead capture, HPLC; settings: room temperature, 1 h; around 2% captured, no elution, data not shown
[10] = test system: a-SDM (DNA, aptamer) GAGGGCAACGAGTGTTTATAGA; assay: equilibrium filtration (3 kD filter), HPLC; settings: 50 mM NaCl, 5 mM KCl, 5 mM MgCl2; 20 mM Tris/HCl pH 8 (BBSDM)

binding [1]: yes
k [2]: 14 µM
k [3]: ~ 60 nM
k [6]: 64 nM
binding [7]: yes
SMILES: CN(C)[C@@H]1C(=O)C(C(N)=O)=C(O)[C@@]2(O)C(=O)C3=C(O)c4c(O)cccc4[C@@](C)(O)[C@H]3C[C@@H]12
k [4]: 100 nM
binding [5]: yes

k [8]: > 2.5 µM
binding [9]: weak
SMILES: Cc1cc(C)nc(NS(=O)(=O)c2ccc(N)cc2)n1

binding [10]: no
SMILES: COc1cc(NS(=O)(=O)c2ccc(N)cc2)nc(OC)n1
